Source: US5834431A, “Des-Arg^9 -BK antagonists” (Cortech, Inc., priority 1995, dated 1998)
Square brackets hold non-standard residues; d marks the D form. Ends that are not written are not given here. Peptide text beside a SMILES is read from it. Oic = O=C(O)[C@@H]1C[C@@H]2CCCC[C@@H]2N1; dIgl = N[C@@H](C(=O)O)C1Cc2ccccc2C1; Gly(cPent) = N[C@H](C(=O)O)C1CCCC1; Igl = N[C@H](C(=O)O)C1Cc2ccccc2C1; Hyp = O=C(O)[C@@H]1C[C@@H](O)CN1; dTic = O=C(O)[C@H]1Cc2ccccc2CN1

Experiments:
[1] = Stability in rat kidney brush border microvilli; format: in vitro ADME
Description: Kidney membranes were prepared as indicated in the literature (Booth et al., Biochemical Journal, 142: 575 (1974)). Rat kidneys were obtained after sacrifice and rinsed in several volumes of a 2 mM tris, 10 mM mannitol buffer, pH 7.1. Cortical material was carefully removed and homogenized in ten volumes of the buffer. The homogenate was spun in a IEC Centra-8 refrigerated centrifuge. (4° C., 200×g). The supernatant was made 10 mM with respect to MgCl2. The supernatant material was subjected to further centrifugation as indicated: [drawing 2] Pellet resuspended in tris-mannitol buffer. Protein concentration was determined by the method of Bradford (Anal. Biochem., 72:248-254 (1976)). Bradykinin antagonists were prepared at 1 mM concentration in a phosphate-buffered saline solution (phosphate saline, 2.6 mM KH2 PO4, 10.42 mM Na2 HPO4, 0.1454M NaCl, pH. 7.2). Aliquots (10 μl) of the compound were added to 90 μl of the tissue samples in Eppendorf tubes. Samples were incubated various time points at 37° C. At each time point protein was precipitated by addition of acetonitrile, acetonitrile made 0.1M HCl or 10% (v/v) trifluoroacetic acid in water (100 μl). Tubes were spun (14,000 rpm, 10 min) in an Eppendorf Model 5415C microcentrifuge. Samples were filtered and analyzed using reverse-phase HPLC (C18 column 4.6×150 mm) and a 13.5% to 90% acetonitrile gradient in 0.1% TFA. Compound half-life was determined by analysis of raw data using ENZFIT application software (Elsevier).

B1 receptor = target: T1, B1 receptor (Homo sapiens, UniProt P46663); assay: Human B1 binding, IL-1b-treated IMR-90 membranes, 3H-des-Arg9-Kallidin; settings: 0.5 nM 3H-des-Arg9-Kallidin, pIC50 = -log of molar IC50
T1 construct: Human lung fibroblasts IMR-90 cells were obtained from ATCC and propagated in DMEM media; host or cells: IMR-90 human lung fibroblasts, treated with interleukin 1b three hours before harvest; membranes
T1 sequence (P46663 1-353): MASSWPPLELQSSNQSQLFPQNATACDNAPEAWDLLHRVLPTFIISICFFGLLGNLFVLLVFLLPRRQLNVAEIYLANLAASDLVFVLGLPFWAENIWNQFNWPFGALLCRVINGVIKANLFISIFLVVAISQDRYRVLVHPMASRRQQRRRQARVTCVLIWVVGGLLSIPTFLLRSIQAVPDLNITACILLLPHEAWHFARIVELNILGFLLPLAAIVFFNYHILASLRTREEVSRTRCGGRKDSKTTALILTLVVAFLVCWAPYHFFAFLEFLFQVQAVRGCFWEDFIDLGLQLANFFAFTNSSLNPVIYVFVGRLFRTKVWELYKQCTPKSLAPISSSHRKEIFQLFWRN
Description: (§1) Human lung fibroblasts IMR-90 cells were obtained from ATCC and propagated in DMEM media in […] roller bottles until confluent. Three hours prior to harvesting, the cells were treated with Interleukin lb (200 pg/ml). Human BK2 clones were propagated in F12 media until confluent. Preparation of membranes for binding assays was carried out by scraping cells from roller bottles in ice cold PBS and centrifuging at 1000 ×g, at 4° C. for 15 minutes. The supernatant was discarded and pellet resuspended in Buffer A consisting of 25 mM TES(pH 6.8) with 2 uM 1,10-Phenanthroline, and centrifuged at 27,000 ×g for 15 min. this was then repeated. The final pellet was resuspended in Buffer B (Buffer A with 2 uM Captopril, 140 ug/Ml Bacitracin, 0.1%BSA), and stored in 1 ml aliquots, frozen at -20° C. until needed.
(§2) Binding assays were performed by incubating human clone membranes with 0.3 nM ^3 H-Bradykinin or IMR-90 membranes with 0.5 nM ^3 H-des-Arg^9 -Kallidin in the presence of the peptides in assay buffer (Buffer B with 1 mM Dithiotreitol), at room temperature, for 45 minutes. All test compound dilutions were in triplicate. Assays were harvested by quick filtration in a Tomtec Harvester 96, with ice cold wash buffer consisting of 10 mM Tris/HCl, pH 7.5, 100 mM NaCl, 0.02%BSA, onto Wallec printed glassfiber Filtermat "B", which had been pre-soaked with 0.1% PEI and previously air-dried.

B2 receptor [2] = target: T2, B2 receptor (Homo sapiens, UniProt P30411); assay: Human B2 binding, human BK2 clone membranes, 3H-Bradykinin; settings: 0.3 nM 3H-Bradykinin, i.a. = inactive, read-out: Human Binding - pIC50 B2 (converted)
T2 construct: expressed in transfected cells
T2 sequence (P30411 1-391): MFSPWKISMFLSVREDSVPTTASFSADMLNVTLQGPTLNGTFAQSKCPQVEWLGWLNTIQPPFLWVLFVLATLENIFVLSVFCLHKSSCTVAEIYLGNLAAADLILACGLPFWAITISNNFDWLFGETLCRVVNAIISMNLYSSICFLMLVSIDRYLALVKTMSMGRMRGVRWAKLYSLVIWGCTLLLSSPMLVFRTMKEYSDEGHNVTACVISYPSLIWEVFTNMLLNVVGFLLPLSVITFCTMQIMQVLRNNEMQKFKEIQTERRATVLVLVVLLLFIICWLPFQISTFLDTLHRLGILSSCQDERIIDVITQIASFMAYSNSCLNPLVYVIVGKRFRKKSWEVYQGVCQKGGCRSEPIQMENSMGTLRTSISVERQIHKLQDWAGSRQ
Description: as §1
as §2, with “air-dried. Filtermats were counted in 9.5 mls Wallec Beta-Plate Scint, in Wallec 1450 MicroBeta Counter.” for “air-dried.”

[3] = Stability in rat lung membranes; format: in vitro ADME
Description: Rat or human lung (3 gm) was prepared as a modification of […] et al. (Biochemical Pharmacology 33: 3471 (1984)). Tissues were removed and placed in cold phosphate-saline (3×). Material was minced and homogenized in 20 volumes (w/v) of 0.5 mM tris HCl. 50 mM mannitol, pH 7.0. Calcium chloride was added to the homogenate to give a final concentration of 10 mM. The material was filtered through a guaze pad to remove loose connective tissue. Filtrate was spun in a Beckman centrifuge (3,000×g) for thirty minutes. The resultant supernatant fraction was spun in a Beckman L7-65 ultracentrifuge (43,000×g, 30 min) to spin down membranes. The centrifugation step was repeated on the membrane pellet fraction two additional times. The pellet was reconstituted in 4 ml of the tris mannitol buffer and stored at -70° C. Protein was determined by the method of Bradford. Bradykinin antagonists were prepared at 1 mM concentration in a phosphate-buffered saline solution (phosphate saline, 2.6 mM KH2 PO4, 10.42 mM Na2 HPO4, 0.1454M NaCl, pH. 7.2). Aliquots (10 μl) of the compound were added to 90 μl of the tissue samples in Eppendorf tubes. Samples were incubated various time points at 37° C. At each time point protein was precipitated by addition of acetonitrile, acetonitrile made 0.1M HCl or 10% (v/v) trifluoroacetic acid in water (100 μl). Tubes were spun (14,000 rpm, 10 min) in an Eppendorf Model 5415C microcentrifuge. Samples were filtered and analyzed using reverse-phase HPLC (C18 column 4.6×150 mm) and a 13.5% to 90% acetonitrile gradient in 0.1% TFA. Compound half-life was determined by analysis of raw data using ENZFIT application software (Elsevier).

B2 receptor [4] = target: T3, B2 receptor (Cavia porcellus, UniProt O70526); assay: GPI binding B2; settings: i.a. = inactive, read-out: GPI Binding - pIC50 B2 (converted)
T3 construct: from tissue
T3 sequence (O70526 1-372): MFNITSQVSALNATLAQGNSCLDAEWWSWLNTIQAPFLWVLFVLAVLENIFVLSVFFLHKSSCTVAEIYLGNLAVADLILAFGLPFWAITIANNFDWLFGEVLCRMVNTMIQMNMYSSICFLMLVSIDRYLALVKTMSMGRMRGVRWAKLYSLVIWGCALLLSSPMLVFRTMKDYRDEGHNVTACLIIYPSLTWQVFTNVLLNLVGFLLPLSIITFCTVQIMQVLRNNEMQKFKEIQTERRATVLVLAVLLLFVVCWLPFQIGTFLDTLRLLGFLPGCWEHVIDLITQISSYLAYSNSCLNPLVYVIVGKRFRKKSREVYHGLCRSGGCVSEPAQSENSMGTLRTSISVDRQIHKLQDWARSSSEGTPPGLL

[5] = target: T4, BK1 (hypotensive response to desArg9BK) (Canis lupus familiaris, UniProt Q9BDQ5); assay: In vivo inhibition of hypotensive response to desArg9BK in anaesthetized dogs; set-up: species or system Mongrel dogs; settings: dog
T4 construct: Mongrel dogs of either sex, weight range 10-15 kg were used; from tissue; host or cells: whole anaesthetized mongrel dog (in vivo blood pressure)
T4 sequence (Q9BDQ5 1-350): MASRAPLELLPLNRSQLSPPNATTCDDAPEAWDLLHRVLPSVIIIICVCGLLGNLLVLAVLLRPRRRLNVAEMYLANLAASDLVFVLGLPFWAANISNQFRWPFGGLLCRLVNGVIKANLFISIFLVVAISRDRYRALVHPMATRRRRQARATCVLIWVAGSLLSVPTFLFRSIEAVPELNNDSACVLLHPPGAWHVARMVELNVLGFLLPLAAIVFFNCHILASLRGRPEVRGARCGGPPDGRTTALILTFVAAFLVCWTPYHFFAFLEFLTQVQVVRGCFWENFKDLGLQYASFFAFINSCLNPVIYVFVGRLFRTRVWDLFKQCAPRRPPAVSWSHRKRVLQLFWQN
Description: Mongrel dogs of either sex, weight range 10-15 kg were used. These were anaesthesized with pentobarbitone, 30 mg/kg i.v. and catheters placed in one femoral artery and both femoral veins for the recording of blood pressure and infusion and injection of compounds. […] After the end of the infusion of the highest dose of the antagonist compound, BK and des-Arg^9 -BK were injected at intervals for up to four hours.

[6] = tested on: type I diabetic hyperglycemia; settings: literature, Zuccollo et al. 1995; cited from earlier work
[7] = tested on: angiogenic response elicited by bradykinin; settings: literature, Hu et al. 1993; cited from earlier work

For `N=C(N)NCCC[C@@H](N)C(=O)N[C@@H](CCCNC(=N)N)C(=O)N1CCC[C@H]1C(=O)N1C[C@H](O)C[C@H]1C(=O)NCC(=O)N[C@H](C(=O)N[C@@H](CO)C(=O)N1Cc2ccccc2C[C@@H]1C(=O)N[C@H](C(=O)O)C1CCCC1)C1CCCC1` [B9066, DArg-Arg-Pro-Hyp-Gly-Cpg-Ser-DTic-Cpg] (H-[dR]RP[Hyp]G[Gly(cPent)]S[dTic][Gly(cPent)]-OH), the Half-Life [1] was greater than 6 h, the IC50 (B1 receptor) was 0.000501 µM and the IC50 (B2 receptor [2]) was 1.26 µM. For the same compound, the Half-Life [3] was greater than 6 h and the IC50 (B2 receptor [4]) was 2.51 µM.

In the case of `N=C(N)NCCC[C@@H](N)C(=O)N[C@@H](CCCNC(=N)N)C(=O)N1CCC[C@H]1C(=O)N1C[C@H](O)C[C@H]1C(=O)NCC(=O)N[C@H](C(=O)N[C@@H](CO)C(=O)N[C@@H](C(=O)N1[C@H](C(=O)O)C[C@@H]2CCCC[C@@H]21)C1Cc2ccccc2C1)C1Cc2ccccc2C1` [B9812, DArg-Arg-Pro-Hyp-Gly-Igl-Ser-DIgl-Oic] (H-[dR]RP[Hyp]G[Igl]S[dIgl][Oic]-OH), the Half-Life [1] is reported as greater than 6 h, the “BK1 ED50” value ([5]; ED50 expressed in pmol) is reported as 10.7 pmol and the “Duration of Action (following 20 min of highest dose)” value ([5]; return of agonist response after end of infusion) is reported as “B1 still 100% blocked at 4.6 h”. The “Selectivity (BK, desArg9BK, ACh, NE, Sp, AII)” value ([5]; which agonist responses are blocked at the stated infusion dose) was “B1 only at 1.0” and the Half-Life [3] was greater than 6 h.

With `CC(C)C[C@H](NC(=O)[C@@H]1CCCN1C(=O)[C@H](CO)NC(=O)[C@H](Cc1ccccc1)NC(=O)CNC(=O)[C@@H]1CCCN1C(=O)[C@@H]1CCCN1C(=O)[C@H](CCCN=C(N)N)NC(=O)[C@@H](N)CCCCN)C(=O)O` [CP-0298, desArg9 Lys0 Leu8 BX, reference compound] the Half-Life [1] was 0.020 h, the “BK1 ED50” value ([5]; infusion, dose of antagonist to inhibit hypotensive response to desArg9BK by 50%) was 0.546 ± .16 µg/kg/min and the Half-Life [3] was 0.085 h.

“RPPGFSPFR [Bradykinin, Arg^1 -Pro^2 -Pro^3 -Gly^4 -Phe^5 -Ser^6 -Pro^7 -Phe^8 -Arg^9, reference compound]” showed a Half-Life ([1]; Rat kidney Brush Border, 37° C.) of 0.13 h and a Half-Life ([3]; Rat Lung Membranes, 37° C.) of 0.13 h.

In the case of [Leu^8, des-Arg^9 ]-bradykinin, the “effect on type I diabetic hyperglycemia” value [6] is given as “cause a reduction in type I diabetic hyperglycemia” and the “effect on angiogenic response elicited by bradykinin” value [7] is given as “inhibit the angiogenic response elicited by bradykinin”.
